# Like-named read-outs stand apart in the source and are kept apart here.
# Legend:
# mouse = assay: Formalin test (acute/early and late phase) in mice; type: in vivo; settings: 150 mg/kg i.p., mice
# Protocol: The formalin test was performed according to the method of Tjølsen, et al. (October 1992) “The formalin test: an evaluation of the method.” Pain 51(1): 5-17. An injection of 0.5% formalin is made into the plantar region of the right hind paw of a mouse. This elicits a distinct behavioral profile in response to the formalin injection characterized by the mouse licking the affected paw. The behavior is characteristically biphasic in nature. For example, immediately following the injection the mouse intensely licks the paw for approximately 5-10 minutes (“min.”) This initial behavior was considered phase 1 (acute) and is thought to be mediated primarily by chemical activation of local C-fibers. The acute phase is followed by a brief latent (usually <5 min) period where there is little or no behavioral activity. A more prolonged (about 20 to 30 min) period of licking then ensues which constitutes phase 2 of the response (late phase). See e.g., Tjølsen, et al. (Feb. 7, 1991) “Antinociceptive effect of paracetamol in rats is partly dependent on spinal serotonergic systems. Eur J Pharmacol. 193(2): 193-201 and Tjølsen, et al. (June 1991) Lesions of bulbo-spinal serotonergic or noradrenergic pathways reduce nociception as measured by the formalin test. Acta Physiol Scand. 142(2): 229-36, the disclosures of each of which are hereby incorporated by reference in its entirety.
# It is in these tubes that mice are later observed for the licking activity for the duration of the experiment. Following the conditioning, the test substance was administered i.p. in a dose equivalent to the MES ED50 and the mouse returned to its home tube. At the TPE of the drug, the formalin is injected subdermally into the plantar surface of the right hind foot. It is given in a volume of 20 μl with a 27 gauge stainless steel needle attached to a Hamilton syringe. The bevel of the needle was placed facing down toward the skin surface. […] The cumulative length of licking for each 2-min time period was measured. […] Animals are euthanized following the conclusion of the experiment.
# Area under the curve (AUC) and subsequent percent of control for drug-treated animal groups is determined using the GraphPad Prism Version 3.03. Total AUC was calculated for both the test and control groups for both the acute and inflammatory phases. The AUC for individual animals for each phase was also calculated and converted to percentage of total AUC of control. The average and S.E.M. for both the drug treated and control percentages were calculated and tested for significant difference.
# Sprague-Dawley rats = assay: Kainic acid induced seizures in rats; type: in vivo, rat; parameters: key to Seizures Severity Mean ± SD (grade 0 to IV): seizure grade 0 = no response to IV = status epilepticus; settings: 20 μmoles/kg IP; for Seizures Severity Mean ± SD (grade 0 to IV) / Seizures Mean ± SD (1 = yes, 0 = no): KA 15 mg/kg i.p.; for Seizures Mean ± SD (1 = yes, 0 = no): 2 hours; for change in vivo at 20 µmol/kg: Rattus norvegicus, 2 h, vs DMSO control
# Protocol: Formulation of kainic acid was performed by NTS as a stock solution by reconstituting kainic acid with (100%) saline that was stored at 4° C. Vehicle control received saline solution. […] The research investigators were blinded to the treatment groups.
# Solutions were prepared fresh daily just prior to use; dosing of all 10 rats with any given compound occurred on a single day after preparing the dosing solution. […] Unused remaining dosing solutions were stored frozen.
# Animals were maintained in a temperature- and light-controlled environment in accord with the principles and procedures of the National Institutes of Health Guidelines for Care and Use of Laboratory Animals. Seizures were induced in adult, male Sprague-Dawley rats (260-300 g) by injection of KA (15 mg/kg, i.p.). In addition, animals were injected with test compounds following kainic acid to determine the effects on protection from epilepsy. Animals were monitored behaviorally for seizures for 2 hours after injection.
# Seizure activity was initially characterized as either yes (1) or no (0) within a 2 hour period following injection of KA. A seizure severity grade was assigned based on the maximal response achieved on a scale from 0 to IV as follows: 0, no response; I, single limb clonus and scratching; II, multiple limb clonus and staggering gait; […], limb clonus, tonic extension of limbs and falling; IV, continuous grade III seizures for longer than 30 min (status epilepticus).
# The results were expressed as the mean±standard deviation (SD). The significance of difference in the epileptic data was analyzed using a one-way analysis of variance (ANOVA) followed by Fisher's post hoc test. Repeated-measures ANOVA were computed on the monitoring data and the significance of the difference among groups were evaluated by Fisher's post hoc test.
# All groups were subjected to kainic acid.
# The induction of seizures in rats with kainic acid was determined as either yes seizures (1) or no seizures (0).
# Na+K+Cl− co-transporter = biological target: T1, Na+K+Cl− co-transporter (Rattus norvegicus, UniProt E9PTX9); assay: Na+K+Cl− cotransporter assay, 86Rb uptake in A7r5 cells; type: cell-based; settings: 10 minutes at 37° C.; for inhibition at 10 µM: read-out: % Inhibition of Control Values; for remaining activity at 10 µM: read-out: % of Control Value
# T1 construct: endogenous in cells; host or cells: A7r5 cells
# T1 sequence (E9PTX9 1-1203): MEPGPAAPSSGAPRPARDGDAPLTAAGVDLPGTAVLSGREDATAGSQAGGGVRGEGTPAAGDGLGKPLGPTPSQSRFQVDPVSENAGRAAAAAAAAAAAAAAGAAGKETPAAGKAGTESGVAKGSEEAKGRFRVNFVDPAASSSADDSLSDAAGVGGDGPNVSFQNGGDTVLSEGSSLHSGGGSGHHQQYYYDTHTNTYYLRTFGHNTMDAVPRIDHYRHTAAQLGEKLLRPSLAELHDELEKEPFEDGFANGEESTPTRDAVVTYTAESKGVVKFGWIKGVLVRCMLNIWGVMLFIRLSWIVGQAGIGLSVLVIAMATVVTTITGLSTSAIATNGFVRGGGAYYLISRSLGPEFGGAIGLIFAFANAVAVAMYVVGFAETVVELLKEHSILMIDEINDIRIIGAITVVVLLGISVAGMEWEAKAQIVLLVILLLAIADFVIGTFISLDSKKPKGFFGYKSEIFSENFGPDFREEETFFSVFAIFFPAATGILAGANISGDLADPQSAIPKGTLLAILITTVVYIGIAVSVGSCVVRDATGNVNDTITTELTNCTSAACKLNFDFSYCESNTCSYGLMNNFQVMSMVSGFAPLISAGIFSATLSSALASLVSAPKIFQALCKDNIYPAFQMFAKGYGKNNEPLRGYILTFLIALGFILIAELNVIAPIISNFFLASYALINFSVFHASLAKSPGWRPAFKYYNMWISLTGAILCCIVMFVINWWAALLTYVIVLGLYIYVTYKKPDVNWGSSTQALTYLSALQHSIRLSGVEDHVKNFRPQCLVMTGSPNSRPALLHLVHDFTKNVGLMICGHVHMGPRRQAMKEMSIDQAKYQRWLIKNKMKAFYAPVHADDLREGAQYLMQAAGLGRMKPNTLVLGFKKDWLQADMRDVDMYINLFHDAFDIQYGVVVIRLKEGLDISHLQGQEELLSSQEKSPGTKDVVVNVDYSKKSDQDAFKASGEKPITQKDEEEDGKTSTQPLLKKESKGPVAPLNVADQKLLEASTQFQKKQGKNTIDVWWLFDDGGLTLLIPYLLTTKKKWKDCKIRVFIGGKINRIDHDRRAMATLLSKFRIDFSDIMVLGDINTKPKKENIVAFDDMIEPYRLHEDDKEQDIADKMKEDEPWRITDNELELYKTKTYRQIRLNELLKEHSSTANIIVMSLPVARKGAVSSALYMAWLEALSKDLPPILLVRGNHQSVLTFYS
# Protocol: Na^+K^+Cl^− co-transporter activity was measured in vitro in A7r5 cells by measuring their uptake of ^86Rb (0.2 μCi) in 10 minutes at 37° C. as detected by scintillation counting. See Chassande, et al. (1988) “The Na^+/K^+/Cl^− Cotransport in C6 glioma cells. Properties and role in volume regulation.” Eur. J. Biochem. 171: 425433.
# Male Rj: NMRI mice = assay: Formalin paw test (late phase) in the mouse; type: in vivo
# Protocol: The method described herein detects analgesic/anti-inflammatory activity, generally used to test compounds for pain relief, in particular diabetic neuropathy or nociceptive neuropathy. See Wheeler-Aceto, et al. (1991) Psychopharmacology 104: 35-44.
# Mice were given an intraplantar injection of 5% formalin (25 μl) into the posterior left paw. This treatment induces paw licking in control animals. Mice were briefly observed at 1 minute intervals between 15 and 50 minutes after the injection of formalin and the number of occasions that the mice were observed licking the injected paw was recorded. There were 10 mice per group and the test was performed “blind.”
# The experiment included 11 groups. Data was analyzed by comparing treated groups with vehicle control using unpaired Mann-Whitney U tests.
# Gabapentin (100 mg/kg i.p.) administered under the same experimental conditions, was used as reference substance. The experiment included several groups. Data was analyzed by comparing treated groups with vehicle control using unpaired Mann-Whitney U tests.
# adult mice (C57/B16) = assay: Mesial temporal lobe epilepsy model (mice), hippocampal discharges; type: in vivo, mouse; settings: 50 mg/kg for NTP-2014 and NTP-2026; 150 mg/kg for NTP-2024, NTP-2006, NTP-1007, NTP-1003
# Protocol: Antiepileptic protocol: Up to eight adult mice (C57/B16) are injected with kainate (1 nmol in 50 nl) and are implanted with a bipolar electrode in the dorsal hippocampus using stereotaxic techniques under general anesthesia. […] Drug conditions are counter-balanced, the animals being used as their own controls. Digital EEG recordings are performed in freely moving animals for 20 min pre-injection and 80 min post-injection. The effects of the injected compound are compared versus vehicle injections and reference period (pre-dose). Upon completion of the experiment, standard histological analysis are performed to verify electrode location, cell losses in CA1, CA3 and hilus, as well as dentate gyrus dispersion. Only animals with all characteristics of MTLE are used in data analysis. […] The results below are normalized to the pre-dose condition for each of the treatment group including DMSO and saline vehicle controls. Doses of test article compounds were 50 mg/kg for NTP-2014 and NTP-2026 and 150 mg/kg for NTP-2024, NTP-2006, NTP-1007, and NTP-1003. Therefore the bumetanide, furosemide, piretanide, azosemide, and torsemide esters and amide analogs described herein may be used in therapeutic methods to treat seizures.
# [1] = read-out: Percent reduction in Seizures
# [2] = read-out: Percent reduction in Seizures Severity
inhibition at 10 µM (Na+K+Cl− co-transporter),remaining activity at 10 µM (Na+K+Cl− co-transporter),SMILES,"% of Control, Acute (mouse)","% of Control, Late Phase (mouse)","Treated (AUC of licking time), Acute (mouse)","Treated (AUC of licking time), Late Phase (mouse)",Seizures Severity Mean ± SD (grade 0 to IV) (Sprague-Dawley rats),"Seizures Mean ± SD (1 = yes, 0 = no) (Sprague-Dawley rats)",change in vivo at 20 µmol/kg (Sprague-Dawley rats; [1]),change in vivo at 20 µmol/kg (Sprague-Dawley rats; [2]),Licking Score % Pain Decrease (Male Rj: NMRI mice; 50 μmol/kg i.p.),Licking Score % Pain Decrease (Male Rj: NMRI mice; 250 μmol/kg i.p.),Licking Score % Pain Decrease (Male Rj: NMRI mice; 500 μmol/kg i.p.),"Anti-inflammatory and analgesic effects in formalin paw test (FIG. 16) (Male Rj: NMRI mice; 50, 250, 500 μmole/kg)","Licking Score (15 to 50 minutes post-formalin injection) % Change from Control (Male Rj: NMRI mice; i.p. 30 minutes before the test, 50 μmol/kg (NTP-2006 23.9, NTP-2024 21.7, NTP-1007 19.3, NTP-2014 21, NTP-2026 23.1 mg/kg))","Licking Score (15 to 50 minutes post-formalin injection) % Change from Control (Male Rj: NMRI mice; i.p., 250 μmol/kg (NTP-2006 119, NTP-2024 108, NTP-1007 96.5, NTP-2014 105, NTP-2026 116 mg/kg))","Licking Score (15 to 50 minutes post-formalin injection) % Change from Control (Male Rj: NMRI mice; i.p., 500 μmol/kg (NTP-2006 239, NTP-2024 217, NTP-1007 193, NTP-2014 210, NTP-2026 231 mg/kg))",Cumulative duration of hippocampal discharges (adult mice (C57/B16)),Number of hippocampal discharges (adult mice (C57/B16))
35%,65.5%,"CCCCNc1cc(C(=O)OCOC(=O)C(C)(C)C)cc(S(N)(=O)=O)c1Oc1ccccc1 [NTP-2012, t-Butylcarbonyloxymethyl 3-Aminosulfonyl-5-butylamino-4-phenoxybenzoate]",48.5%,0.49%,75.07,5.08,0.2000 ± 0.4216,0.2000 ± 0.4216,-77.8%,-91.7%,–,–,–,–,–,–,–,–,–
–,–,"CCN(CC)C(=O)c1cc(S(N)(=O)=O)c(Cl)cc1NCc1ccco1 [NTP-1007, N,N-Diethyl 5-Aminosulfonyl-4-chloro-2-[(2-furanylmethyl)amino]benzamide]",–,–,–,–,–,–,–,–,9%,13%,66%,show anti-inflammatory and analgesic effects,−9%,−13%,−66%,decreased,decreased
13%,87.4%,"CCCCNc1cc(C(=O)OCC(=O)N(C)C)cc(S(N)(=O)=O)c1Oc1ccccc1 [NTP-2011, N,N-Dimethylaminocarbonylmethyl 3-Aminosulfonyl-5-butylamino-4-phenoxybenzoate]",53.37%,0.72%,78.55,5.43,0.3000 ± 0.6749,0.2000 ± 0.4216,-77.8%,-87.5%,–,–,–,–,–,–,–,–,–
17%,82.8%,"CCCCNc1cc(C(=O)N(Cc2ccccc2)Cc2ccccc2)cc(S(N)(=O)=O)c1Oc1ccccc1 [NTP-2008, N,N-Dibenzyl 3-Aminosulfonyl-5-butylamino-4-phenoxybenzamide]",63.69%,10.66%,73.94,66.42,0.1000 ± 0.3162,0.1000 ± 0.3162,-88.9%,-95.8%,–,–,–,–,–,–,–,–,–

# Reference: patent publication US9682928B2 (NeuroPro Therapeutics, Inc., priority 2009, dated 2017)
